Reference: ChEMBL document CHEMBL1136896, “Synthesis and biological evaluation of arylhydrazinocyanoacrylates and N-aryl pyrazolecarboxylates” (2009)

Legend:
Format in all cases: functional
Digitaria sanguinalis [1] = test: Herbicidal activity against Digitaria sanguinalis at 1.5 kg/hectare administered postemergence of first true leaf measured after 10 days; conditions: post-emergence, 240 h
[2] = system: Botryosphaeria berengeriana; test: Fungicidal activity against Physalospora pyricola assessed as inhibition of mycelium growth at 50 mg/L after 72 hrs
Bel-7402 [3] = test: Antitumor activity against human Bel7402 cells at 1000 uM/L after 72 hrs by MTT assay; conditions: Bel-7402, 72 h
Bel-7402 [4] = test: Antitumor activity against human Bel7402 cells at 1 uM/L after 72 hrs by MTT assay; conditions: Bel-7402, 72 h
Brassica napus [5] = test: Herbicidal activity against Brassica napus L. at 1.5 kg/hectare administered preemergence of first true leaf measured after 10 days; conditions: pre-emergence, 240 h
Amaranthus retroflexus [6] = test: Herbicidal activity against Amaranthus retroflexus at 1.5 kg/hectare administered postemergence of first true leaf measured after 10 days; conditions: post-emergence, 240 h
HL-60 [7] = test: Antitumor activity against human HL60 cells at 1 uM/L after 72 hrs by MTT assay; conditions: HL-60, 72 h
Bel-7402 [8] = test: Antitumor activity against human Bel7402 cells at 10 uM/L after 72 hrs by MTT assay; conditions: Bel-7402, 72 h
Brassica napus [9] = test: Herbicidal activity against Brassica napus at 1.5 kg/hectare administered postemergence of first true leaf measured after 10 days; conditions: post-emergence, 240 h
Cladosporium cucumerinum = test: Fungicidal activity against Cladosporium cucumerinum assessed as inhibition of mycelium growth at 50 mg/L after 72 hrs
Fusarium graminearum = test: Fungicidal activity against Gibberella zeae assessed as inhibition of mycelium growth at 50 mg/L after 72 hrs
HL-60 [10] = test: Antitumor activity against human HL60 cells at 1000 uM/L after 72 hrs by MTT assay; conditions: HL-60, 72 h
Medicago sativa [11] = test: Herbicidal activity against Medicago sativa at 1.5 kg/hectare administered postemergence of first true leaf measured after 10 days; conditions: post-emergence, 240 h
HL-60 [12] = test: Antitumor activity against human HL60 cells at 100 uM/L after 72 hrs by MTT assay; conditions: HL-60, 72 h
Mycosphaerella arachidis = test: Fungicidal activity against Cercospora arachidicola assessed as inhibition of mycelium growth at 50 mg/L after 72 hrs
Digitaria sanguinalis [13] = test: Herbicidal activity against Digitaria sanguinalis (L.) Scop. at 1.5 kg/hectare administered preemergence of first true leaf measured after 10 days; conditions: pre-emergence, 240 h
Medicago sativa [14] = test: Herbicidal activity against Medicago sativa at 1.5 kg/hectare administered preemergence of first true leaf measured after 10 days; conditions: pre-emergence, 240 h
Bel-7402 [15] = test: Antitumor activity against human Bel7402 cells at 100 uM/L after 72 hrs by MTT assay; conditions: Bel-7402, 72 h
Alternaria solani = test: Fungicidal activity against Alternaria solani assessed as inhibition of mycelium growth at 50 mg/L after 72 hrs
Amaranthus retroflexus [16] = test: Herbicidal activity against Amaranthus retroflexus at 1.5 kg/hectare administered preemergence of first true leaf measured after 10 days; conditions: pre-emergence, 240 h
HL-60 [17] = test: Antitumor activity against human HL60 cells at 10 uM/L after 72 hrs by MTT assay; conditions: HL-60, 72 h
Cucumis sativus = test: Growth regulatory activity in cucumber assessed as root growth at 10 mg/L incubated in dark for 5 days

SMILES	inhibition at 1500 g/ha (Digitaria sanguinalis [1]) [%]	inhibition at 50 µg/mL [2] [%]	inhibition at 1000 µM (Bel-7402 [3]) [%]	inhibition at 1 µM (Bel-7402 [4]) [%]	inhibition at 1500 g/ha (Brassica napus [5]) [%]	inhibition at 1500 g/ha (Amaranthus retroflexus [6]) [%]	inhibition at 1 µM (HL-60 [7]) [%]	inhibition at 10 µM (Bel-7402 [8]) [%]	inhibition at 1500 g/ha (Brassica napus [9]) [%]	inhibition at 50 µg/mL (Cladosporium cucumerinum) [%]	inhibition at 50 µg/mL (Fusarium graminearum) [%]	inhibition at 1000 µM (HL-60 [10]) [%]	inhibition at 1500 g/ha (Medicago sativa [11]) [%]	inhibition at 100 µM (HL-60 [12]) [%]	inhibition at 50 µg/mL (Mycosphaerella arachidis) [%]	inhibition at 1500 g/ha (Digitaria sanguinalis [13]) [%]	inhibition at 1500 g/ha (Medicago sativa [14]) [%]	inhibition at 50 µg/mL (Alternaria solani) [%]	inhibition at 1500 g/ha (Amaranthus retroflexus [16]) [%]	Activity (Cucumis sativus) [%]	further results
CCOCCOC(=O)c1c(SC)nn(-c2ccc([N+](=O)[O-])cc2)c1N	0	13.3	48.4	5.5	0	0	2.4	0	0	12.7	51.1	28.5	38.3	22.3	11.8	0	0	8	0	54.4	inhibition at 100 µM (Bel-7402 [15]): 4.2%; inhibition at 10 µM (HL-60 [17]): 0%
CCOCCOC(=O)c1c(SC)nn(-c2ccccc2)c1N	0	0	49	0	0	32	4.3	0	53.6	12.7	42.2	10.6	38.3	0.6	41.2	0	0	8	10	50.4	inhibition at 100 µM (Bel-7402 [15]): 0%; inhibition at 10 µM (HL-60 [17]): 6.8%
CCOCCOC(=O)/C(C#N)=C(/CC)NNc1cccc(Cl)c1Cl	5.4	65.3	55.3	11.6	0	15.6	21.2	12.1	4.3	13.9	14.4	69.4	3.3	50	24.2	0	0	20	5.9	-12.7	inhibition at 100 µM (Bel-7402 [15]): 24.9%; inhibition at 10 µM (HL-60 [17]): 26.8%
CCOCCOC(=O)/C(C#N)=C(\NCc1ccc(Cl)nc1)SC	54.1				47.6	100			100				55.3			18.8	3.6		32.4		
CCOCCOC(=O)/C(C#N)=C(/CC)NNc1c(Cl)cc(Cl)cc1Cl	1.8	46.7	95.9	0	0	13.3	2.5	3.9	0	22.2	19.2	84.3	5.6	36.6	15.5	0	0	25	8.8	-16.5	inhibition at 100 µM (Bel-7402 [15]): 3.6%; inhibition at 10 µM (HL-60 [17]): 23.1%
CCOCCOC(=O)c1c(C(C)C)nn(-c2ccccc2)c1N	0	32			15	0			58.8	1.8	46.7		0		20.6	0	0	32	0	46.3	
CCOCCOC(=O)c1c(C(C)C)nn(-c2ccc([N+](=O)[O-])cc2)c1N	0	46.7	48.6	0	0	0	0	6.2	0	40	46.7	10	0	27.8	44.1	0	0	16	0	21.9	inhibition at 100 µM (Bel-7402 [15]): 10.7%; inhibition at 10 µM (HL-60 [17]): 9%
